From patent publication US20040013733A1, “Preparation of a biodegradable thermal-sensitive gel system” (Industrial Technology Research Institute, priority 2001, published 2004)

System: blood vessel growth (angiogenesis)
Assay: The angiogenesis animal model: gel of Example 4 mixed with drug injected to mice, blood vessel growth observed
Assay type: in vivo
Settings: drug in gel of Example 4, 0.5 mL gel injected, two months old mice, N=2, after 15 days, gel and adjacent tissue
Method: The gel solution prepared according the process of Example 4 was mixed with various drugs listed in tablet at room temperature and is injected (0.5 mL gel each) to two months old mice, N=2. Sacrifice the mice after 15 days and take out the gel and its adjacent tissue to observe the blood vessel growth. The results are listed in table 1 and shown in the color pictures supplemented (please refer to attachments).
The tissue taken out was observed by electron microscope and the results were shown as FIG. 2.
In other words, the endothecium cell and blood vessels of the host can develop in the beehive structure of the gel. The results tell us that co-administrate the gel of the present invention and angiogenesis drug did benefit angiogenesis.

Substance: bFGF: angiogenesis-inducing growth factor, 250 ng/ml, mixed with gel of Example 4
- Blood vessel growth state: Angiogenesis is present
